Data on three molecules can be found in patent US10189796B2, “[4-(1,3,3-trimethyl-2-oxo-3,4-dihydro-1H-quinoxalin-7-yl)phenoxy]ethyloxy compound or salt thereof” (SANTEN PHARMACEUTICAL CO., LTD., priority 2015, dated 2019).

In test [1] the test system is exorbital lacrimal gland-removed rat dry eye model. Put plainly: Dry eye syndrome (dry eye) model evaluation test. The class given is in vivo. As to conditions: eye drop 5 μL four times a day. Here is the method:
In order to evaluate the treatment effect of the present compounds on corneal disorder accompanied by dry eye syndrome (dry eye), a treatment effect on corneal disorder in an exorbital lacrimal gland-removed rat dry eye model was investigated. This model was prepared in accordance with the method of Fujihara, et al. (Invest. Ophthalmol. Vis. Sci., 42(1): 96-100 (2001)). Incidentally, this effect was scored according to the method of Murakami et al. (New Ophthalmologist 21(1): 87-90 (2004)), the extent of corneal disorder was scored and the improvement ratio was calculated from the corneal disorder score of the base agent administered group (control group), the corneal disorder score of the test compound administered group and the corneal disorder score of the normal rat.
A base agent containing a general additive(s) was added to the test compound to prepare test compound suspensions with 0.03% (W/V) and 0.1% (W/V). In addition, a base agent was added to the commercially available drug A to prepare a diluted solution with 0.05% (V/V).
• 1) By using male SD rats, somnopentyl was administered to the rats to apply them general anesthesia, exorbital lacrimal glands were removed, and corneal disorder was induced over 8 weeks thereafter. • 2) The test compound suspension was eye-dropped (instillation dose: 5 μL/time) to both eyes four times a day for 14 days. Incidentally, the base agent was similarly eye-dropped to the administered group (control group), and the commercially available drug A and its diluted solution were similarly eye-dropped. • 3) Fourteen days after the start of eye dropping, the cornea was stained with fluorescein. For each of the upper part, the middle part and the lower part of the cornea, scores of the degree of staining with fluorescein were determined according to the following criteria, and an average value of the total of the scores was calculated. Incidentally, 0.5 was set as an intermediate value between each score of 0, 1, 2 and 3. <<Judgement Standard>>
1: Dyeing is sparse, and the dyed portions of each dot are separated
2: Dyeing is a middle degree and part of the dotted dyed portions is adjacent
3: Dyeing is dense, and the dyed portions of each point are almost adjacent
(Calculation Formula) Corneal disorder improvement ratio (%) of the test compound administered group=(Ao−Ax)/(Ao−An)×100 • Ao: Average value of corneal disorder score of the base agent administered group (control group) • Ax: Average value of corneal disorder score of the test compound administered group • An: Average value of corneal disorder score of normal rat (Test Result and Consideration)

Test [2] has the same test system. Put plainly: Dry eye syndrome (dry eye) model evaluation test. The class given is in vivo. As to conditions: eye drop 5 μL four times a day. This is another data set of the same source.
Test [3] has as its system VEGF-induced retinal elevated vascular permeability model of rabbits. Put plainly: Retinal vascular permeability model evaluation test. The class given is in vivo, rabbit. As to conditions: 8% 50 μL/base agent A, intravitreal once; 4 weeks before VEGF induction. As for the experimental part: In order to evaluate the inhibitory effect of the present compounds on VEGF-induced retinal vascular permeability, the inhibitory effect of the present compound on retinal vascular permeability in a VEGF-induced retinal elevated vascular permeability model of rabbits was evaluated. Incidentally, this effect was evaluated by calculating a leaked amount of the fluorescent dye of the base agent administered group (non-induced group), a leaked amount of the fluorescent dye of the base agent administered group (control group) and a leaked amount of the fluorescent dye of the test compound administered group.
To the test compound was added 0.01% Polysorbate 80/0.5% sodium carboxymethyl cellulose/PBS (hereinafter referred to as “base agent A”.), whereby 2% (W/V) or 8% (W/V) of the test compound suspension was prepared. Or else, to the test compound was added PEG400 (hereinafter referred to as “base agent B”.), whereby 6% (W/W) of the test compound solution was prepared.
VEGF solution: humanVEGF165 was dissolved in PBS to prepare 50 μg/mL of VEGF solution.
• 1) A mixed solution (1 mL/kg) of 5% ketamine hydrochloride injection solution and 2% xylazine hydrochloride injection solution with the ratio of 7:1 was intramuscularly administered to rabbits (Dutch male rabbits), and the rabbits were anesthetized. • 2) Tropicamide-phenylephrine hydrochloride ophthalmic solution (trade name: Midlin P) was eye dropped to maintain pupillary mydriasis, and then, the VEGF solution was intravitreally administered. Incidentally, PBS was intravitreally administered to the base agent administration group (non-induced group). • 3) Fluorescein was intravenously administered 2 days after intravitreal administration of VEGF. Two hours after the intravenous administration of fluorescein, an amount of the leaked fluorescent dye in the vitreous body was measured by using a fluorophotometer. (Test Method) • 1) One week before or 4 weeks before VEGF-induction, 50 μL of the test compound suspension (prepared by the base agent A) was intravitreally administered once, or 5 μL of the test compound solution (prepared by the base agent B) was intravitreally administered once. Incidentally, in the base agent administered group (non-induced group) and the base agent administered group (control group), the base agent A was used in place of the test compound suspension, or the base agent B was used in place of the test compound solution. • 2) Inhibition ratio of elevated retinal vascular permeability was calculated according to the following calculation formula. (Calculation Formula) Inhibitory ratio (%) on elevated retinal vascular permeability of the test compound administered group=100×{1−(average value of a leaked fluorescent dye amount in the test compound administered group−average value of a leaked fluorescent dye amount in the base agent administered group (non-induced group))/(average value of a leaked fluorescent dye amount in the base agent administered group (control group)−average value of a leaked fluorescent dye amount of the base agent administered group (non-induced group))}

Turning to `COc1cc(OC[C@H](C)OC(=O)CCC(=O)O)ccc1-c1ccc2c(c1COc1cc(F)ccc1C)N(C)C(=O)C(C)(C)N2` [Compound 12-1, (S)-7-[4-[2-(3-carboxypropanoyloxy)propyl]oxy-2-methoxyphenyl]-8-(5-fluoro-2-methylphenoxymethyl)-1,3,3-trimethyl-3,4-dihydro-1H-quinoxalin-2-one], the results for the “Corneal disorder improvement ratio (%) After 14 days eye dropping” value in test [1] (0.03%) and in test [1] (0.1%) were 48% and 58%, respectively. Moreover, the entries for the “Corneal disorder improvement ratio (%) After 7 days eye dropping” value in test [2] (0.03%) and in test [2] (0.1%) were 33% and 42%, respectively.
For the molecule `COc1cc(OC[C@H](C)OC(=O)C(O)CO)ccc1-c1ccc2c(c1COc1cc(F)ccc1C)N(C)C(=O)C(C)(C)N2` (stereo partly drawn) [Compound 13-1, (S)-7-[4-[2-(2,3-dihydroxypropanoyl)oxypropyl]oxy-2-methoxyphenyl]-8-(5-fluoro-2-methylphenoxymethyl)-1,3,3-trimethyl-3,4-dihydro-1H-quinoxalin-2-one], the “Corneal disorder improvement ratio (%) After 14 days eye dropping” value in test [1] (0.1%) came out at 46%. In addition, in test [2] (0.1%), the “Corneal disorder improvement ratio (%) After 7 days eye dropping” value is recorded as 38%.
Consider `COc1cc(OC[C@H](CC#N)OP(=O)(O)O)ccc1-c1ccc2c(c1COc1cc(F)ccc1C)N(C)C(=O)C(C)(C)N2` [Compound 14-3, (S)-7-[4-(3-cyano-2-phosphonohydroxypropyl)oxy-2-methoxyphenyl]-8-(5-fluoro-2-methylphenoxymethyl)-1,3,3-trimethyl-3,4-dihydro-1H-quinoxalin-2-one], for which the “Inhibitory ratio (%) on elevated vascular permeability” value in test [3] came to 89%.
